Six compounds from PubChem BioAssay (NCI) can be followed below.

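Interpolation was linear, between the two tested concentrations surrounding the appropriate level; five concentrations were tested over 48 hours in 96-well plates. Abbreviation: GI50, concentration required for 50% inhibition of growth. TGI marks complete inhibition of growth.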

Common to all, as to assay: growth of human tumour cells (NCI), 48 h
The test system of test [1] is ACHN renal.
In test [2] the test system is CCRF-CEM leukemia.
The test system of test [3] is COLO 205 colon.
The test system of test [4] is HL-60(TB) leukemia.
For test [5], the system named is NCI/ADR-RES ovarian.
Test [6] deals with OVCAR-5 ovarian.
Test [7] relates to RPMI-8226 leukemia.
The test system of test [8] is SK-MEL-5 melanoma.
Test [9] concerns SK-OV-3 ovarian.
In test [10] the test system is SR leukemia.

As for `CC/C=C\C[C@H](F)C/C=C1/C(=O)C=C[C@@H]1C/C=C\CCCC(=O)OC`, the GI50 was 2.46 µM in [1]; 1.38 µM in test [2]; 1.22 µM in [3]; 1.52 µM in [4]; 1.71 µM in [5]; 3.35 µM in test [6]. For the same compound, the GI50 was 1.39 µM in test [7], 1.29 µM in test [8], 10.5 µM in test [9] and 1.06 µM in test [10]. The TGI in test [1] was determined as 9.07 µM; in test [2], 5.75 µM; in [3] it was 2.72 µM; in test [4], 6.29 µM; in [5], 35 µM; in test [6], 12.4 µM. Besides, the TGI in test [7] was found to be 5.49 µM; in test [8], 3.13 µM; in [9], 32.1 µM; in [10], 3.42 µM.
As to `Cn1c(=O)c(Oc2ccc(F)cc2F)cc2cnc(NC(C)(C)CO)nc21`, the GI50 in [1], in test [2], in [3], in [4], in [5] and in test [6] was more than 25 µM in each case. Also, the GI50 in [7], in test [8], in test [9] and in [10] was more than 25 µM each time. In addition, the TGI in test [1], in test [2], in [3], in [4], in [5] and in test [6] was more than 25 µM each time. In addition, the TGI in [7], in [8], in [9] and in test [10] was more than 25 µM throughout.
As to `COc1cc(C2CC(c3cccc(Nc4ccnc5cc(Cl)ccc45)c3)=NN2c2ccc(Cl)cc2)cc(OC)c1OC` (stereo not given), the GI50 in [1] is 1.48 µM; in [2] it was 4.84 µM; in [3], 3.13 µM; in test [4] it was 4.18 µM; in [5], 3.18 µM; in test [6], 13.2 µM. Also, the GI50 is 3.69 µM in [7], 1.37 µM in [8], 17.3 µM in [9] and 2.54 µM in test [10]. The TGI is more than 100 µM in test [1]; more than 100 µM in [2]; 24.5 µM in [3]; more than 100 µM in [4]; more than 100 µM in [5]; more than 100 µM in test [6]. The TGI in [7] was more than 100 µM; in [8], 4.05 µM; in test [9] it was more than 100 µM; in test [10] it was more than 100 µM.
As to `O=c1oc2ccc(I)cc2c(=O)n1-c1ccc(F)cc1F`, the GI50 in test [1] was 2.52 µM; in test [2], 3.24 µM; in [3], 3.39 µM; in test [4], 2.04 µM; in test [5], 2.64 µM; in test [6] it was 3.96 µM. Further, the GI50 in test [7] is 1.49 µM; in [8], 1.53 µM; in test [9], 1.16 µM; in test [10] it was 3.02 µM. Further, the TGI in test [1] is 8.42 µM; in test [2], 19.2 µM; in test [3] it was 13.1 µM; in [4], 5.12 µM; in test [5], 13.4 µM; in [6] it was more than 100 µM. Moreover, the TGI was 4.83 µM in test [7], 3.03 µM in test [8], 4.17 µM in test [9] and more than 100 µM in test [10].
For the compound `C=C1CC2(CC(c3ccccc3Cl)OC(c3ccccc3Cl)C2)OC1=O` (stereo not given), the TGI in [1] was determined as 9.82 µM; in test [2], 10.1 µM; in test [3] it was 5.51 µM; in test [4], 12.1 µM; in [5] it was 8.55 µM; in test [6], 16.5 µM. In addition, the TGI in [7] is 3.84 µM; in test [8], 10.4 µM; in [9], 16.9 µM; in [10] it was 14.2 µM.
For `Cc1c(-c2ccc(C3CCCCC3)cc2)nc2ccc(F)cc2c1C(=O)O`, the GI50 in [1] was 0.33 µM; in [2] it was 0.0858 µM; in [3], 0.185 µM; in test [4] it was 0.335 µM; in [5], 0.609 µM; in [6], more than 100 µM. The GI50 in test [7] was 0.273 µM; in test [8], 0.0799 µM; in test [9], more than 100 µM; in test [10] it was 0.0629 µM. In addition, the TGI in test [1], in [2], in [3], in test [4], in test [5] and in test [6] was more than 100 µM in each case. The TGI in test [7], in [8], in test [9] and in test [10] was more than 100 µM in each case.
